Structures can show the parent of a compound that is named as a salt.
target: T1, ENaC (Homo sapiens, UniProt P37088+P51168+P51170); assay: Short circuit current assay to determine ENaC blocker potency in human bronchial epithelial cells; format: cell-based; details: 50% inhibition of total amiloride-sensitive ISC, apical addition, read-out: Averages.ENaC IC50 (nM) Avg
T1 construct: host or cells: primary human bronchial epithelial cells (HBECs) differentiated at air-liquid interface
T1 sequence (P37088 1-669): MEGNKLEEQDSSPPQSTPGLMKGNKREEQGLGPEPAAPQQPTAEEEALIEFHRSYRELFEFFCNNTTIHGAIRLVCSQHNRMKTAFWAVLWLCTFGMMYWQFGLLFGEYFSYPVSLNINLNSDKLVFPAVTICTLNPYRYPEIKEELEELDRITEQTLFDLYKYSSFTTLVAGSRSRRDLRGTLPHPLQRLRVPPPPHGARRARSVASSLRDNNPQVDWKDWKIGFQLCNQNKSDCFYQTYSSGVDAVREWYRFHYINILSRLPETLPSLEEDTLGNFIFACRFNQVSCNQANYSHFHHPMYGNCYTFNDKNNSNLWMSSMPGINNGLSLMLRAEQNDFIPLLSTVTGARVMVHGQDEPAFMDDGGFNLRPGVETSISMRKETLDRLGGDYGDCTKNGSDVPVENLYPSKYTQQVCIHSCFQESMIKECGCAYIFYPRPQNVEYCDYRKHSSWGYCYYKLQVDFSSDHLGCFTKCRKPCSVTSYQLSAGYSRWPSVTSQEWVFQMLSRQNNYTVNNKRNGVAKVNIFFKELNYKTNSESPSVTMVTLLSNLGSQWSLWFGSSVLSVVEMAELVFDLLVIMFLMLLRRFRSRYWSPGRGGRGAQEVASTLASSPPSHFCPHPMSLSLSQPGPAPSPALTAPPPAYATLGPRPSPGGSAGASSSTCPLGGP
T1 sequence (P51168 1-640): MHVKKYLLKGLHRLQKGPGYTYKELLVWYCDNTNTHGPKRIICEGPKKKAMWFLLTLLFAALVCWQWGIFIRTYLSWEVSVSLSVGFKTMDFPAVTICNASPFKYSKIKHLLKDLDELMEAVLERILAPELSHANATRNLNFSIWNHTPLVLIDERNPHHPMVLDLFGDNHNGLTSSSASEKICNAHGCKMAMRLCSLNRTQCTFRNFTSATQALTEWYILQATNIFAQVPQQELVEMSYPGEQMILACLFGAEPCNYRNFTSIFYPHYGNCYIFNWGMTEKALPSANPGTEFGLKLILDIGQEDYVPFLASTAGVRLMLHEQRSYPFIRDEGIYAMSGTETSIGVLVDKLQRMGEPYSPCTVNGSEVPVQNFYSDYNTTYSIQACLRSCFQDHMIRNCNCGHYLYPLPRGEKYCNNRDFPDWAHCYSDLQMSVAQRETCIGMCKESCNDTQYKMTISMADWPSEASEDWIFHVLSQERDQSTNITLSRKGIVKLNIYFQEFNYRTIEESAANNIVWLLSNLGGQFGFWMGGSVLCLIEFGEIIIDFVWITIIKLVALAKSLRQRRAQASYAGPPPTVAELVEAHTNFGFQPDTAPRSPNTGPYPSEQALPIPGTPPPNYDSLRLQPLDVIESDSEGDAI
T1 sequence (P51170 1-649): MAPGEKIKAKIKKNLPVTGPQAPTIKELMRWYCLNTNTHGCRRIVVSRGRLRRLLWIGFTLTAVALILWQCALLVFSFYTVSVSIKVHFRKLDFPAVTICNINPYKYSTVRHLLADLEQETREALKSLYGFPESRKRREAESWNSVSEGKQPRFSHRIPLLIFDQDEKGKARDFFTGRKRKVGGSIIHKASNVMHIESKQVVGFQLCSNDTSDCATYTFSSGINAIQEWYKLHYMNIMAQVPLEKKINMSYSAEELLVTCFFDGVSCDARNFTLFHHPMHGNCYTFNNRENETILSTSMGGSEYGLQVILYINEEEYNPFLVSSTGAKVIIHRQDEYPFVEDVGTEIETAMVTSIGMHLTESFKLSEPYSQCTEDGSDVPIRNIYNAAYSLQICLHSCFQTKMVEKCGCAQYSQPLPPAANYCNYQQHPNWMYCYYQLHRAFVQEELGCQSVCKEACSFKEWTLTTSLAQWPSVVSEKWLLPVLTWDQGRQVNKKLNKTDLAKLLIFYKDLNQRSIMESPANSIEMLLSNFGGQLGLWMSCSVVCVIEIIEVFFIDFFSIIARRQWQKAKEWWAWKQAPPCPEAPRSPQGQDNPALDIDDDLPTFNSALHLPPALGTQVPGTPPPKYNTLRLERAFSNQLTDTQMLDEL
Protocol: Example 68—Short circuit current assay to determine ENaC blocker potency in human bronchial epithelial cells
Human bronchial epithelial cells (HBECs) (Lonza, UK) were cultured using a modification of the method described by Coote et al, (2008). Cells were seeded into plastic T-75 flasks and grown in Bronchial Epithelial Cell Growth Medium (BEGM) (Lonza, UK) supplemented with bovine pituitary extract (52 ng/mL), hydrocortisone (0.5 μg/mL), human recombinant Epidermal Growth Factor (0.5 ng/mL), epinephrine (0.5 ng/mL), transferrin (10 ng/mL), insulin (5 ng/mL), retinoic acid (0.1 ng/mL), triiodothyronine (6.5 ng/mL), gentamycin (50 μg/mL) and amphotericin-B (50 ng/mL). Medium was changed every 48 hours until cells were 90% confluent. Cells were then passaged and seeded (8.25×10^5 cells/insert) onto polycarbonate Snapwell™ inserts (Costar, UK) in differentiation media containing 50% DMEM in BGEM with the same supplements as above but without triiodothyronine and a final retinoic acid concentration of 50 nM (all-trans retinoic acid; Sigma-Aldrich, UK). Cells were maintained submerged for the first 7 days in culture after which time they were exposed to an apical air interface for the remainder of the culture period. From the first day of establishment of an ALI, HBEC were fed with a DMEM:HAMS F-12 (1:1) media containing 2% Ultroser G (Pall BioSepra, France) with gentamycin (50 μg/mL) and amphotericin B (50 ng/mL). Cells were used for short-circuit current assay between days 14-21 after the establishment of the ALI. At all stages of culture, cells were maintained at 37° C. in 5% CO2 in an air incubator.
Short-Circuit Current (ISC) Measurements
Snapwell inserts were mounted in Costar Vertical Diffusion Chambers (Costar, UK) and were bathed with continuously gassed Ringer solution (5% CO2 in O2; pH 7.4) maintained at 37° C. containing (in mM): 120 NaCl, 25 NaHCO3, 3.3 KH2PO4, 0.8 K2HPO4, 1.2 CaCl2, 1.2 MgCl2 and 10 glucose. The solution osmolarity was always between 280-300 mOsm/kg H2O for all physiological salt solutions used. Cells were voltage clamped to 0 mV (model EVC4000, WPI). Transepithelial resistance (RT) was measured by applying a 2 mV pulse at 30 s intervals and calculating RT by Ohm's law. Data were recorded using a PowerLab workstation (ADlnstruments, UK).
ENaC blocker compounds were added to the apical chamber from a 1000-fold stock solution (prepared in DMSO) to achieve a cumulative concentration response in terms of the inhibition of the basal ISC. At the completion of the concentration response, a supra-maximal concentration of amiloride (10 μM) was added. The concentration of test compound that induced a 50% inhibition of the total amiloride-sensitive ISC (IC50) was calculated using GraphPad Prism v6.05. The results are presented in Table 2, from which it can be seen that the compounds of the present invention have ENaC inhibiting activity.

| Structure (SMILES) | IC50 [nM] |
| --- | --- |
| CCn1c(CNC(=O)c2nc3cc[nH]c3nc2N)[n+](C)c2ccccc21 [Example 1, 2-[({3-amino-5H-pyrrolo[2,3-b]pyrazin-2-yl}formamido)methyl]-1-ethyl-3-methyl-1H-1,3-benzodiazol-3-ium formate] | 33 |
| CCn1c(CNC(=O)c2nc3cc[nH]c3nc2N)[n+](C)c2ccc(F)cc21 [Example 2, 2-[({3-amino-5H-pyrrolo[2,3-b]pyrazin-2-yl}formamido)methyl]-1-ethyl-6-fluoro-3-methyl-1H-1,3-benzodiazol-3-ium chloride] | 43 |
| CCn1c(CNC(=O)c2nc3cc[nH]c3nc2N)[n+](C)c2ccc(Cl)cc21 [Example 3, 2-[({3-amino-5H-pyrrolo[2,3-b]pyrazin-2-yl}formamido)methyl]-6-chloro-1-ethyl-3-methyl-1H-1,3-benzodiazol-3-ium formate] | 19 |
| CCn1c(CNC(=O)c2nc3cc[nH]c3nc2N)[n+](C)c2ccc(OC)cc21 [Example 4, 2-[({3-amino-5H-pyrrolo[2,3-b]pyrazin-2-yl}formamido)methyl]-1-ethyl-6-methoxy-3-methyl-1H-1,3-benzodiazol-3-ium formate] | 8 |
| CCn1c(CNC(=O)c2nc3cc[nH]c3nc2N)[n+](C)c2ccc(C(F)(F)F)cc21 [Example 5, 2-[({3-amino-5H-pyrrolo[2,3-b]pyrazin-2-yl}formamido)methyl]-1-ethyl-3-methyl-6-(trifluoromethyl)-1H-1,3-benzodiazol-3-ium formate] | 9 |
| CCn1c(CNC(=O)c2nc3cc[nH]c3nc2N)[n+](C)c2ccc(OC(F)(F)F)cc21 [Example 6, 2-[({3-amino-5H-pyrrolo[2,3-b]pyrazin-2-yl}formamido)methyl]-1-ethyl-3-methyl-6-(trifluoromethoxy)-1H-1,3-benzodiazol-3-ium formate] | 5 |
| CCn1c(CNC(=O)c2nc3cc[nH]c3nc2N)[n+](CC)c2ccc(OC)cc21 [Example 7, 2-[({3-amino-5H-pyrrolo[2,3-b]pyrazin-2-yl}formamido)methyl]-1,3-diethyl-6-methoxy-1H-1,3-benzodiazol-3-ium formate] | 3 |
| CCn1c(CNC(=O)c2nc3cc[nH]c3nc2N)[n+](Cc2ccccc2)c2ccc(OC)cc21 [Example 8, 2-[({3-amino-5H-pyrrolo[2,3-b]pyrazin-2-yl}formamido)methyl]-3-benzyl-1-ethyl-6-methoxy-1H-1,3-benzodiazol-3-ium formate] | 9 |

Further lines, results first:

| IC50 [nM] | Structure (SMILES) |
| --- | --- |
| 48 | CCn1c(CNC(=O)c2nc3cc[nH]c3nc2N)[n+](CC(=O)OC)c2ccc(OC)cc21 [Example 9, 2-[({3-amino-5H-pyrrolo[2,3-b]pyrazin-2-yl}formamido)methyl]-1-ethyl-6-methoxy-3-(2-methoxy-2-oxoethyl)-1H-1,3-benzodiazol-3-ium bromide] |
| 199 | CCn1c(CNC(=O)c2nc3cc[nH]c3nc2N)[n+](CC(=O)O)c2ccc(OC)cc21 [Example 10, 2-[({3-amino-5H-pyrrolo[2,3-b]pyrazin-2-yl}formamido)methyl]-3-(carboxylatomethyl)-1-ethyl-6-methoxy-1H-1,3-benzodiazol-3-ium] |
| 22 | CCn1c(CNC(=O)c2nc3cc[nH]c3nc2N)[n+](CC(N)=O)c2ccc(OC)cc21 [Example 11, 2-[({3-amino-5H-pyrrolo[2,3-b]pyrazin-2-yl}formamido)methyl]-3-(carbamoylmethyl)-1-ethyl-6-methoxy-1H-1,3-benzodiazol-3-ium bromide] |
| 5 | CCn1c(CNC(=O)c2nc3cc[nH]c3nc2N)[n+](CCSC)c2ccc(OC)cc21 [Example 12, 2-[({3-amino-5H-pyrrolo[2,3-b]pyrazin-2-yl}formamido)methyl]-1-ethyl-6-methoxy-3-[2-(methylsulfanyl)ethyl]-1H-1,3-benzodiazol-3-ium iodide] |
| 4 | CCn1c(CNC(=O)c2nc3cc[nH]c3nc2N)[n+](CCO)c2ccc(OC)cc21 [Example 13, 2-[({3-amino-5H-pyrrolo[2,3-b]pyrazin-2-yl}formamido)methyl]-1-ethyl-3-(2-hydroxyethyl)-6-methoxy-1H-1,3-benzodiazol-3-ium] |
| 11 | CCn1c(CNC(=O)c2nc3cc[nH]c3nc2N)[n+](CCOCCOCCO)c2ccc(OC)cc21 [Example 14, 2-[({3-amino-5H-pyrrolo[2,3-b]pyrazin-2-yl}formamido)methyl]-1-ethyl-3-{2-[2-(2-hydroxyethoxy)ethoxy]ethyl}-6-methoxy-1H-1,3-benzodiazol-3-ium] |
| 198 | C[n+]1c(CNC(=O)c2nc3cc[nH]c3nc2N)n(Cc2ccccc2)c2ccccc21 [Example 15, 2-[({3-amino-5H-pyrrolo[2,3-b]pyrazin-2-yl}formamido)methyl]-1-benzyl-3-methyl-1H-1,3-benzodiazol-3-ium] |
| 10 | CCn1c(CNC(=O)c2nc3cc[nH]c3nc2N)[n+](Cc2ccccc2)c2ccc(Cl)cc21 [Example 16, 2-[({3-amino-5H-pyrrolo[2,3-b]pyrazin-2-yl}formamido)methyl]-3-benzyl-6-chloro-1-ethyl-1H-1,3-benzodiazol-3-ium] |
